ChEMBL document CHEMBL1201862, “PubChem BioAssay data set” (2004)
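The compound was tested at five concentrations on cells cultured in 96-well plates, with a 48-hour exposure period. Here, GI50 denotes the concentration required for 50% inhibition of growth.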 Active and inactive are the calls of the source. Cut-off read from the data, not from the text of the source: active = GI50 up to about 1.1 µM and inactive = higher.

Tests used:
Test in all cases: NCI-60 cell line screen, 48 h
ACHN = test system: ACHN
CAKI-1 = test system: CAKI-1
DU-145 = test system: DU-145
HL-60 = test system: HL-60
HOP-62 = test system: HOP-62
IGROV-1 = test system: IGROV-1
KM12 = test system: KM12
MDA-MB-435 = test system: MDA-MB-435
NCI-H460 = test system: NCI-H460
OVCAR-4 = test system: OVCAR-4
OVCAR-5 = test system: OVCAR-5
PC-3 = test system: PC-3
SF-268 = test system: SF-268
SK-MEL-2 = test system: SK-MEL-2
SNB-75 = test system: SNB-75
T47D = test system: T47D
EKVX = test system: EKVX
MCF7 = test system: MCF7

CCOC(=O)N1[C@@H]2CCC[C@@H]2C(=O)[C@@H]2CCC[C@@H]21
GI50 (ACHN): > 100 µM (inactive)
GI50 (CAKI-1): > 100 µM (inactive)
GI50 (DU-145): > 100 µM (inactive)
GI50 (HL-60): > 100 µM (inactive)
GI50 (HOP-62): > 100 µM (inactive)
GI50 (IGROV-1): > 100 µM (inactive)
GI50 (KM12): > 100 µM (inactive)
GI50 (MDA-MB-435): > 100 µM (inactive)
GI50 (NCI-H460): > 100 µM (inactive)
GI50 (OVCAR-4): > 100 µM (inactive)
GI50 (OVCAR-5): > 100 µM (inactive)
GI50 (PC-3): > 100 µM (inactive)
GI50 (SF-268): > 100 µM (inactive)
GI50 (SK-MEL-2): > 100 µM (inactive)
GI50 (SNB-75): > 100 µM (inactive)
GI50 (T47D): > 100 µM (inactive)

Cc1ccccc1NC(=O)Cc1csc(N/N=C2\C(=O)Nc3ccccc32)n1
GI50 (ACHN): 36.8 µM (inactive)
GI50 (CAKI-1): 19.9 µM (inactive)
GI50 (DU-145): 75 µM (inactive)
GI50 (EKVX): 31.8 µM (inactive)
GI50 (HL-60): 22.3 µM (inactive)
GI50 (IGROV-1): 33.9 µM (inactive)
GI50 (KM12): 33.3 µM (inactive)
GI50 (MCF7): 50 µM (inactive)
GI50 (MDA-MB-435): 1 µM (active)
GI50 (NCI-H460): 35.4 µM (inactive)
GI50 (OVCAR-4): 21.8 µM (inactive)
GI50 (OVCAR-5): 41.7 µM (inactive)
GI50 (PC-3): 18.6 µM (inactive)
GI50 (SF-268): 39.4 µM (inactive)
GI50 (SK-MEL-2): 44.6 µM (inactive)
GI50 (SNB-75): 55.1 µM (inactive)

COc1cccc2c1CCc1c(-c3ccc(F)cc3)cc(-c3ccc4ccccc4n3)nc1-2
GI50 (ACHN): > 100 µM (inactive)
GI50 (CAKI-1): > 100 µM (inactive)
GI50 (EKVX): > 100 µM (inactive)
GI50 (HOP-62): > 100 µM (inactive)
GI50 (IGROV-1): > 100 µM (inactive)
GI50 (KM12): > 100 µM (inactive)
GI50 (MCF7): > 100 µM (inactive)
GI50 (MDA-MB-435): > 100 µM (inactive)
GI50 (NCI-H460): > 100 µM (inactive)
GI50 (OVCAR-4): > 100 µM (inactive)
GI50 (OVCAR-5): > 100 µM (inactive)
GI50 (PC-3): > 100 µM (inactive)
GI50 (SF-268): > 100 µM (inactive)
GI50 (SK-MEL-2): > 100 µM (inactive)
GI50 (SNB-75): > 100 µM (inactive)
GI50 (T47D): > 100 µM (inactive)

C[C@H]1CC[C@@]2(NC1)O[C@H]1C[C@H]3[C@@H]4CC[C@H]5C[C@@H](O)CC[C@]5(C)[C@H]4CC[C@]3(C)[C@H]1[C@@H]2C
GI50 (ACHN): 39.5 µM (inactive)
GI50 (CAKI-1): > 100 µM (inactive)
GI50 (DU-145): > 100 µM (inactive)
GI50 (EKVX): > 100 µM (inactive)
GI50 (HL-60): 51.1 µM (inactive)
GI50 (HOP-62): 18.7 µM (inactive)
GI50 (IGROV-1): 71.6 µM (inactive)
GI50 (KM12): 71.8 µM (inactive)
GI50 (MCF7): > 100 µM (inactive)
GI50 (NCI-H460): 33.4 µM (inactive)
GI50 (OVCAR-4): 35.6 µM (inactive)
GI50 (OVCAR-5): > 100 µM (inactive)
GI50 (PC-3): > 100 µM (inactive)
GI50 (SF-268): 74.8 µM (inactive)
GI50 (SK-MEL-2): > 100 µM (inactive)
GI50 (SNB-75): 57.5 µM (inactive)
GI50 (T47D): > 100 µM (inactive)

O=[N+]([O-])c1ccc2[nH]nc(OCc3ccccc3Cl)c2c1
GI50 (ACHN): 19.8 µM (inactive)
GI50 (CAKI-1): 50.4 µM (inactive)
GI50 (DU-145): 50.7 µM (inactive)
GI50 (EKVX): 54.2 µM (inactive)
GI50 (HL-60): > 100 µM (inactive)
GI50 (HOP-62): 37.8 µM (inactive)
GI50 (IGROV-1): 91.2 µM (inactive)
GI50 (KM12): 91.4 µM (inactive)
GI50 (MDA-MB-435): > 100 µM (inactive)
GI50 (NCI-H460): 35.5 µM (inactive)
GI50 (OVCAR-4): 41.3 µM (inactive)
GI50 (OVCAR-5): 52.6 µM (inactive)
GI50 (PC-3): > 100 µM (inactive)
GI50 (SF-268): 68.7 µM (inactive)
GI50 (SK-MEL-2): 27.2 µM (inactive)
GI50 (SNB-75): 81.5 µM (inactive)
GI50 (T47D): 15 µM (inactive)

O=C(CN1CCCCC1)c1ccc2[nH]c(=O)oc2c1
GI50 (ACHN): > 100 µM (inactive)
GI50 (CAKI-1): > 100 µM (inactive)
GI50 (DU-145): > 100 µM (inactive)
GI50 (EKVX): > 100 µM (inactive)
GI50 (HL-60): > 100 µM (inactive)
GI50 (HOP-62): > 100 µM (inactive)
GI50 (IGROV-1): > 100 µM (inactive)
GI50 (KM12): > 100 µM (inactive)
GI50 (MCF7): > 100 µM (inactive)
GI50 (MDA-MB-435): > 100 µM (inactive)
GI50 (NCI-H460): > 100 µM (inactive)
GI50 (OVCAR-5): > 100 µM (inactive)
GI50 (PC-3): > 100 µM (inactive)
GI50 (SF-268): > 100 µM (inactive)
GI50 (SK-MEL-2): > 100 µM (inactive)
GI50 (SNB-75): 0.957 µM (active)

Cc1cccc(/C=C2\CCCCCC2=O)c1
GI50 (ACHN): > 100 µM (inactive)
GI50 (CAKI-1): > 100 µM (inactive)
GI50 (DU-145): > 100 µM (inactive)
GI50 (EKVX): > 100 µM (inactive)
GI50 (HL-60): < 0.01 µM (active)
GI50 (HOP-62): > 100 µM (inactive)
GI50 (IGROV-1): > 100 µM (inactive)
GI50 (KM12): > 100 µM (inactive)
GI50 (MDA-MB-435): > 100 µM (inactive)
GI50 (NCI-H460): 99.8 µM (inactive)
GI50 (OVCAR-4): > 100 µM (inactive)
GI50 (OVCAR-5): > 100 µM (inactive)
GI50 (PC-3): > 100 µM (inactive)
GI50 (SF-268): > 100 µM (inactive)
GI50 (SK-MEL-2): > 100 µM (inactive)
GI50 (SNB-75): > 100 µM (inactive)
GI50 (T47D): > 100 µM (inactive)

Oc1cc(-c2ccc3ccccc3c2)nc2ncccc12
GI50 (ACHN): 31.9 µM (inactive)
GI50 (DU-145): 19.9 µM (inactive)
GI50 (EKVX): 33.2 µM (inactive)
GI50 (HOP-62): 21.7 µM (inactive)
GI50 (IGROV-1): 6.4 µM (inactive)
GI50 (KM12): 4.88 µM (inactive)
GI50 (MCF7): 5.77 µM (inactive)
GI50 (OVCAR-4): 12.1 µM (inactive)
GI50 (OVCAR-5): 31.3 µM (inactive)
GI50 (SF-268): 28.1 µM (inactive)
GI50 (SK-MEL-2): 4.95 µM (inactive)
GI50 (SNB-75): 11.5 µM (inactive)
GI50 (T47D): 11.6 µM (inactive)

N#C[C@H](c1nc2ccccc2s1)c1nc2ccccc2nc1Cl
GI50 (ACHN): 14.2 µM (inactive)
GI50 (CAKI-1): > 100 µM (inactive)
GI50 (EKVX): > 100 µM (inactive)
GI50 (HL-60): > 100 µM (inactive)
GI50 (HOP-62): 17.9 µM (inactive)
GI50 (IGROV-1): > 100 µM (inactive)
GI50 (KM12): 80.9 µM (inactive)
GI50 (MCF7): 5.56 µM (inactive)
GI50 (MDA-MB-435): > 100 µM (inactive)
GI50 (NCI-H460): 18.6 µM (inactive)
GI50 (OVCAR-4): 16.3 µM (inactive)
GI50 (OVCAR-5): 17.9 µM (inactive)
GI50 (PC-3): 31 µM (inactive)
GI50 (SK-MEL-2): 33.7 µM (inactive)
GI50 (SNB-75): > 100 µM (inactive)
GI50 (T47D): > 100 µM (inactive)

O=C1/C(=c2\s/c(=C\c3ccccc3)c(=O)n2-c2ccccc2)SC(=S)N1c1ccccc1
GI50 (ACHN): 22.3 µM (inactive)
GI50 (CAKI-1): 0.131 µM (active)
GI50 (DU-145): 37.2 µM (inactive)
GI50 (EKVX): 35.6 µM (inactive)
GI50 (HL-60): > 100 µM (inactive)
GI50 (IGROV-1): 25 µM (inactive)
GI50 (KM12): 71.8 µM (inactive)
GI50 (MCF7): 53.5 µM (inactive)
GI50 (MDA-MB-435): 49.8 µM (inactive)
GI50 (NCI-H460): 41 µM (inactive)
GI50 (OVCAR-4): 29.4 µM (inactive)
GI50 (OVCAR-5): > 100 µM (inactive)
GI50 (PC-3): 55 µM (inactive)
GI50 (SF-268): 41.8 µM (inactive)
GI50 (SK-MEL-2): 32.3 µM (inactive)
GI50 (SNB-75): 19.4 µM (inactive)

NC(Cc1ccc(O)cn1)C(=O)O (stereo unspecified)
GI50 (ACHN): > 100 µM (inactive)
GI50 (CAKI-1): > 100 µM (inactive)
GI50 (DU-145): > 100 µM (inactive)
GI50 (EKVX): > 100 µM (inactive)
GI50 (HL-60): 33.8 µM (inactive)
GI50 (HOP-62): > 100 µM (inactive)
GI50 (IGROV-1): > 100 µM (inactive)
GI50 (KM12): > 100 µM (inactive)
GI50 (MCF7): > 100 µM (inactive)
GI50 (MDA-MB-435): 84.1 µM (inactive)
GI50 (NCI-H460): > 100 µM (inactive)
GI50 (OVCAR-4): > 100 µM (inactive)
GI50 (OVCAR-5): > 100 µM (inactive)
GI50 (PC-3): > 100 µM (inactive)
GI50 (SF-268): > 100 µM (inactive)
GI50 (SNB-75): > 100 µM (inactive)

O=C(/C=C/c1cc(F)ccc1F)OCCc1ccccc1
GI50 (ACHN): > 100 µM (inactive)
GI50 (CAKI-1): > 100 µM (inactive)
GI50 (EKVX): > 100 µM (inactive)
GI50 (HL-60): 16.4 µM (inactive)
GI50 (HOP-62): > 100 µM (inactive)
GI50 (IGROV-1): > 100 µM (inactive)
GI50 (KM12): 96.2 µM (inactive)
GI50 (MCF7): 42.2 µM (inactive)
GI50 (MDA-MB-435): > 100 µM (inactive)
GI50 (OVCAR-4): 0.933 µM (active)
GI50 (OVCAR-5): > 100 µM (inactive)
GI50 (PC-3): 49.4 µM (inactive)
GI50 (SF-268): > 100 µM (inactive)
GI50 (SK-MEL-2): > 100 µM (inactive)
GI50 (SNB-75): 83.6 µM (inactive)
